Series [1] can be described thus: NMR conformational analysis in DPC micelles. The format is physicochemical. The settings on record: 1H NMR (chemical shift and NOE), 100 mM DPC-d38, 50 mM potassium phosphate pH 6.5, 10% D2O, 25°C; remaining regions random coil. The procedure: The samples for NMR spectroscopy were prepared by dissolving the appropriate amount of peptide in 50 mM potassium phosphate buffer (pH 6.5), 10% D2O, and 100 mM DPC-d38. NMR spectra were recorded on a Varian INOVA 600 MHz spectrometer equipped with a z-gradient 5 mm triple-resonance probe head. Spectra were recorded at a temperature of 25°C. The spectra were calibrated relative to TSP (0.00 ppm) as internal standard. One-dimensional (1D) NMR spectra were recorded in the Fourier mode with quadrature detection. The water signal was suppressed by gradient echo ([Hwang and Shaka, 1995]). 2D DQF-COSY ([Piantini et al., 1982]; [Marion and Wüthrich, 1983]), TOCSY ([Braunschweiler and Ernst, 1983]), and NOESY ([Jenner et al., 1979]) spectra were recorded in the phase-sensitive mode. Data block sizes were 2048 addresses in T2 and 512 equidistant T1 values. Before Fourier transformation, the time domain data matrices were multiplied by shifted sin2 functions in both dimensions. A mixing time of 70 ms was used for the TOCSY experiments. NOESY experiments were run with mixing time of 100 ms.

Series [2] is described as follows: Circular dichroism (secondary structure). The format is physicochemical. The note with it: for % helix / effect of temperature on secondary structure / self-aggregation (in words) / secondary structure (in words) / effect of temperature on secondary structure (in words): CD; for % helix: H2O:TFE (50:50, v:v); for effect of temperature on secondary structure / self-aggregation (in words): PBS pH 7.4, 10 to 60°C in increments of 5°C; for effect of temperature on secondary structure (in words): Supplementary Figures S14, S15, various temperatures (10 to 60°C). The procedure: CD spectra were recorded on JASCO J-815 with increasing temperature from 10 to 60°C in increments of 5°C between λ = 270 and 185 nm. The CD measurements were carried out in H2O, a mixture of H2O:TFE (50:50, v:v) and PBS (phosphate buffered saline, pH 7.4, containing: sodium chloride, potassium chloride, sodium phosphate dibasic, potassium phosphate monobasic). The spectra were registered with the following parameters: 0.2 nm resolution, 1.0 nm bandwidth, 20 mdeg sensitivity, 0.25 s response, 100 nm min^−1 scanning speed, 5 scans, and 0.02 cm cuvette path length. The CD spectra of solvents were recorded and subtracted from the raw data. The spectra were corrected by a baseline that was measured with the identical solvent in the same cell. The CD intensity is given as mean residue molar ellipticity (θ) [deg × cm^2 × dmol^−1].
For orientation: Circular dichroism is the unequal absorption of left and right circularly polarised light.

The subject of series [3] is anti-MBP protein IgM antibodies of MS serum. In words: Inhibition (competitive) ELISA, MBP protein coated. The format is binding, human. The note with it: tested MS serum; peptides 1 and 2 as inhibitors. From the text:
(§1) Fifteen Multiple Sclerosis (MS) patients were recruited in the Multiple Sclerosis Clinical Care and Research Centre, Department of Neurosciences, Reproductive Sciences and Odontostomatology, Federico II University (Naples, Italy). The relapsing-remitting MS (RR-MS) patients were previously diagnosed after a lumbar puncture, cerebrospinal fluid analysis, and MRI examination and fulfilled the established international diagnostic criteria ([Polman et al., 2011]; [Thompson et al., 2018]). The present study was conducted in accordance with the Declaration of Helsinki. The performed experimental protocols were approved by the Ethics Committee 2006 (protocol n. 120/06) and 2017 (protocol n. 160/17). […]
(§2) Nunc-Immuno MicroWell 96 well polystyrene ELISA plates (NUNC Maxisorb, product code M9410, Merck, Milan, Italy) were coated with a solution 10 μg/ml of the peptide antigens in pure carbonate buffer 0.05 M (pH 9.6) adding 100 μL/well, and microplates were incubated at 4°C overnight. […] Antibody affinity was measured following the competitive ELISA previously reported ([Real-Fernández et al., 2015]). Semi-saturating sera dilution was previously calculated in preliminary titration curves (absorbance 0.7). […] After approximately 30 min, the reaction was stopped with 1 M NaOH solution (50 μL/well), and the absorbance was read in a multichannel ELISA reader (Tecan Sunrise, Männedorf, Switzerland) at 405 nm. […]

Series [4] has as its system IgM antibodies in MS patient sera. Put plainly: Solid-phase ELISA (SP-ELISA), IgM. The format is binding, human. The note with it: peptide coated 10 μg/ml; for patients in whose serum IgM antibodies were detected: 1 out of 15 patients, sera 1:100; for IgM antibody detection (in words): fifteen MS patient sera 1:100, carbonate buffer pH 9.6, anti-human IgM 1:200, 405 nm. From the text: Fifteen Multiple Sclerosis (MS) patients were recruited in the Multiple Sclerosis Clinical Care and Research Centre, Department of Neurosciences, Reproductive Sciences and Odontostomatology, Federico II University (Naples, Italy). The relapsing-remitting MS (RR-MS) patients were previously diagnosed after a lumbar puncture, cerebrospinal fluid analysis, and MRI examination and fulfilled the established international diagnostic criteria ([Polman et al., 2011]; [Thompson et al., 2018]). The present study was conducted in accordance with the Declaration of Helsinki. The performed experimental protocols were approved by the Ethics Committee 2006 (protocol n. 120/06) and 2017 (protocol n. 160/17). Blood samplings were performed during the routine follow-up of patients, while the healthy control samplings were carried out during routine health checks or blood donations. Sera samples were obtained for diagnostic purposes from patients and healthy controls who had given their informed consent. Blood samples were centrifuged at 4,000 rpm for 10 min and sera supernatant was stored at -20°C until use.
Immunoassays were performed to evaluate IgM or IgG antibodies in sera by SP-ELISA. At this purpose, the synthetic antigens were coated on 96-well plates (NUNC Maxisorb, product code M9410, Merck, Milan, Italy). Coating conditions were set-up independently for each peptide and results are reported in the Supplementary Material. Polystyrene 96-well ELISA plates were coated with 100 μL/well of a 10 μg/ml solution of synthetic peptide antigens 1-6 diluted in pure carbonate buffer 0.05 M (pH 9.6), independently. After overnight incubation at 4°C, plates were washed (3×) using washing buffer. Nonspecific binding sites were blocked with 100 μL/well of fetal bovine serum buffer (10% FBS in washing buffer) at room temperature for 1 h. FBS buffer was removed, and plates were incubated overnight at 4°C with sera (diluted 1:100 in FBS buffer, 100 μL/well). After three washes, plates were treated with 100 μL/well of anti-human IgG or IgM alkaline phosphatase-conjugated specific antibodies diluted in FBS buffer 1:3,000 (IgG) and 1:200 (IgM) for all tested antigens. […] Colorimetric reaction was carried out adding 100 μl of substrate reaction solution (1 mg/ml pNPP, MgCl2 0.01 M in carbonate buffer, pH 9.6) to each well and plates were read at 405 nm using a TECAN plate reader. After 30 min, the reaction was stopped with 1 M NaOH solution (50 μL/well) and the absorbance was read in a multichannel ELISA reader (Tecan Sunrise, Männedorf, Switzerland) at 405 nm. Antibody titer values were calculated as (mean Abs of serum triplicate)—(mean Abs of blank triplicate) representing graphically the calculated mean values. […]
Background: In an ELISA, binding on a coated surface is turned into a signal by an enzyme label.

In series [5] the test system is IgG antibodies in MS patient sera. In words: Solid-phase ELISA (SP-ELISA), IgG. It is filed as binding. The settings on record: fifteen MS patient sera 1:100; peptide coated 10 μg/ml, carbonate buffer pH 9.6; anti-human IgG 1:3,000; 405 nm.
Source text: as §1
Immunoassays were performed to evaluate IgM or IgG antibodies in sera by SP-ELISA. […] Colorimetric reaction was carried out adding 100 μl of substrate reaction solution (1 mg/ml pNPP, MgCl2 0.01 M in carbonate buffer, pH 9.6) to each well and plates were read at 405 nm using a TECAN plate reader. After 30 min, the reaction was stopped with 1 M NaOH solution (50 μL/well) and the absorbance was read in a multichannel ELISA reader (Tecan Sunrise, Männedorf, Switzerland) at 405 nm. Antibody titer values were calculated as (mean Abs of serum triplicate)—(mean Abs of blank triplicate) representing graphically the calculated mean values. […]

Series [6] concerns anti-MBP (76–116) IgM antibodies of MS serum. Put plainly: Inhibition (competitive) ELISA, MBP (76–116) (2) coated. It is filed as binding, human.
Source text: as §1, §2

This note sets out measurements from publication PMC9250970, “Role of Helical Structure in MBP Immunodominant Peptides for Efficient IgM Antibody Recognition in Multiple Sclerosis” (Frontiers in Chemistry, 2022).

“Also recorded” adds a separate entry of the source.

With “SQHGRTQDENPVVHFFKNIVTPRTPPPSQGKGRGLSLSRFS [MBP (76–116) (2), elongated synthetic peptide, fragment 76–116 of myelin basic protein]”, the “helical structure, residues” value in series [1] was 87–96. The “% helix” value in series [2] (25°C) was 3%. Moreover, in series [2], the “effect of temperature on secondary structure / self-aggregation (in words)” value was “shift of the minimum to lower wavelength and a strong decrease of the signal intensity; also recorded: temperature-induced peptide self-aggregation, likely in beta structures”; the “effect of temperature on secondary structure (in words)” value is “no spectral differences of secondary peptide structure at various temperatures”. Besides, the “secondary structure (in words)” value in series [2] (PBS pH 7.4, 25°C) was “random coil structures”. For the same sequence, the “secondary structure (in words)” value in series [2] (water, 25°C) was “randomly structured in water solution”. Also, the “minimum of CD spectrum attributed to beta structures (aggregation)” value in series [2] (PBS pH 7.4, increasing temperature, temperature-induced self-aggregation) was “about 205 nm”. For the same sequence, the “inhibition of IgM antibody binding to MBP protein (in words)” value in series [3] is given as “able to inhibit IgM antibody binding to MBP protein in the tested MS serum with comparable IC50”. In series [4], the “patients in whose serum IgM antibodies were detected” value is 7%; the “IgM antibody detection (in words)” value was “IgM antibodies were detected in one representative patient serum; also recorded: able to detect a high, stable, and reproducible IgM antibody titer”.

Regarding TPPPSQGK [MBP (99–106) (6)], the “IgG antibody reactivity (in words)” value in series [5] was “nonspecific IgG antibody reactivity”.

For “TQDENPVVHFFKNIVTPRTPPPSQGK [MBP (81–106) (1), synthetic peptide, fragment 81–106 of myelin basic protein, covering the immunodominant region]”, in series [5], the “IgG antibody reactivity (in words)” value is “To a lesser extent, also against peptide MBP (81–106) (1); also recorded: slightly recognized IgGs and IgMs”. For the same sequence, the “helical structure, residues” value in series [1] was 87–96. Moreover, the “% helix” value in series [2] (25°C) turned out to be 14%. Further, in series [2], the “effect of temperature on secondary structure / self-aggregation (in words)” value is “no differences of secondary structure at various temperatures” and the “effect of temperature on secondary structure (in words)” value is on record as “no spectral differences of secondary peptide structure at various temperatures”. Also, the “secondary structure (in words)” value in series [2] (water, 25°C) was “randomly structured in water solution”. The “inhibition of IgM antibody binding to MBP protein (in words)” value in series [3] is “able to inhibit IgM antibody binding to MBP protein in the tested MS serum with comparable IC50”. In addition, the “affinity of IgMs in competitive ELISA, fold greater than longer analogue MBP (76–116) (2)” value in series [6] (competitive ELISA, MS serum, compared to the longer analogue) stood at 4 fold. Besides, the “antibody affinity/recognition in competitive experiment (in words)” value in series [6] (solution conditions of the competitive experiments, peptide 1 vs. peptide 2) is “recognized more efficiently by antibodies in the solution conditions of the competitive experiments”. Besides, in series [4], the “patients in whose serum IgM antibodies were detected” value was 7%; the “IgM antibody detection (in words)” value was “slightly recognized IgGs and IgMs”.
